Results from EP0183129A1, “Quinolonecarboxylic acid derivatives” (KYORIN PHARMACEUTICAL CO., LTD., priority 1984, dated 1986).
In brackets after ≈: the same amount, converted by molar mass. Structures can show the parent of a compound that is named as a salt. Where two headings read alike, the source gives them in different places.

Tests used:
[1] = system: Bacillus subtilis PCI 219; test: In vitro antibacterial activity, MIC (standard strain); format: cell-based; settings: PCI219
[2] = system: Staphylococcus aureus 209 P; test: as above; format: cell-based; settings: Staphylococcus aureus 209 P; 10^6 cells/ml; standard strain; read-out: MIC
[3] = system: S. aureus Smith; test: as above; format: cell-based, Staphylococcus aureus
[4] = system: S. epidermidis IID 866; test: as above; format: cell-based; settings: Staphylococcus epidermidis, IID866, S. epidermidis IID 866; 10^6 cells/ml; standard strain; read-out: MIC
[5] = system: Streptococcus pyogenes S-8; test: as above; format: cell-based; settings: S8; Streptococcus pyogenes S-8; 10^6 cells/ml; standard strain; read-out: MIC
[6] = system: S. pneumoniae IID 552; test: as above; format: cell-based; settings: Streptococcus pneumoniae, IID552; S. pneumoniae IID 552; 10^6 cells/ml; standard strain; read-out: MIC
[7] = system: S. faecalis IID 682; test: as above; format: cell-based; settings: Enterococcus faecalis, IID682; S. faecalis IID 682; 10^6 cells/ml; standard strain; read-out: MIC
[8] = system: E. coli ATCC 10536; test: as above; format: cell-based; settings: Escherichia coli, ATCC10536; E. coli ATCC 10536; 10^6 cells/ml; standard strain; read-out: MIC
[9] = system: E. coli ML 4707; test: as above; format: cell-based; settings: Escherichia coli, ML4707; E. coli ML 4707; 10^6 cells/ml; standard strain; read-out: MIC
[10] = system: Enterobacter cloacae IID 977; test: as above; format: cell-based; settings: Enterobacter cloacae, IID977, Enterobacter cloacae IID 977; 10^6 cells/ml; standard strain; read-out: MIC
[11] = system: Klebsiella pneumoniae KY(GN)6445; test: as above; format: cell-based; settings: Klebsiella pneumoniae KY(GN)6445; 10^6 cells/ml; standard strain; read-out: MIC
[12] = system: K. pneumoniae 1-220S; test: as above; format: cell-based; settings: Klebsiella pneumoniae, 1220S; K. pneumoniae 1-220S; 10^6 cells/ml; standard strain; read-out: MIC
[13] = system: Salmonella entritidis IID 604; test: as above; format: cell-based; settings: IID604; Salmonella entritidis IID 604; 10^6 cells/ml; standard strain; read-out: MIC
[14] = system: Yersinia enterocolitica IID 981; test: as above; format: cell-based; settings: IID981; Yersinia enterocolitica IID 981; 10^6 cells/ml; standard strain; read-out: MIC
[15] = system: S. marcescens GN 7577; test: as above; format: cell-based; settings: Serratia marcescens, GN7577; S. marcescens GN 7577; 10^6 cells/ml; standard strain; read-out: MIC
[16] = system: P. aeruginosa IID 1210; test: as above; format: cell-based; settings: Pseudomonas aeruginosa, IID1210; P. aeruginosa IID 1210; 10^6 cells/ml; standard strain; read-out: MIC
[17] = system: Acinetobacter anitratus IID 876; test: as above; format: cell-based; settings: Acinetobacter calcoaceticus, IID876, Acinetobacter anitratus IID 876; 10^6 cells/ml; standard strain; read-out: MIC
[18] = system: B. fragilis 25285; test: as above; format: cell-based, Bacteroides fragilis; settings: Bacteroides fragilis, 25285, B. fragilis 25285; 10^6 cells/ml; standard strain; read-out: MIC
[19] = system: Fusobacterium varium KYA 8501; test: as above; format: cell-based; settings: Fusobacterium varium, KYA8501, Fusobacterium varium KYA 8501; 10^6 cells/ml; standard strain; read-out: MIC
[20] = system: Clostridium perfringens KYA 13123; test: microbe, parasite or virus in culture; format: cell-based; settings: KYA13123
[21] = system: S. pneumoniae 15; test: In vitro antibacterial activity, MIC (clinical isolates); format: cell-based; settings: Streptococcus pneumoniae; S. pneumoniae 15; 10^6 cells/ml; clinical isolate; read-out: MIC
[22] = system: S. pneumoniae 3227; test: as above; format: cell-based; settings: Streptococcus pneumoniae; S. pneumoniae 3227; 10^6 cells/ml; clinical isolate; read-out: MIC
[23] = system: S. pyogenes 3130; test: as above; format: cell-based; settings: Streptococcus pyogenes, read-out: MIC
[24] = system: S. pyogenes 3102; test: as above; format: cell-based; settings: Streptococcus pyogenes; S. pyogenes 3102; 10^6 cells/ml; clinical isolate; read-out: MIC
[25] = system: S. pyogenes 4372; test: as above; format: cell-based; settings: Streptococcus pyogenes; S. pyogenes 4372; 10^6 cells/ml; clinical isolate; read-out: MIC
[26] = system: S. agalactiae 4394; test: as above; format: cell-based; settings: Streptococcus agalactiae; S. agalactiae 4394; 10^6 cells/ml; clinical isolate; read-out: MIC
[27] = system: S. agalactiae 4342; test: as above; format: cell-based; settings: Streptococcus agalactiae; S. agalactiae 4342; 10^6 cells/ml; clinical isolate; read-out: MIC
[28] = system: S. agalactiae 4470; test: as above; format: cell-based; settings: Streptococcus agalactiae; S. agalactiae 4470; 10^6 cells/ml; clinical isolate; read-out: MIC
[29] = system: S. agalactiae 4468; test: as above; format: cell-based; settings: Streptococcus agalactiae; S. agalactiae 4468; 10^6 cells/ml; clinical isolate; read-out: MIC
[30] = system: S. faecalis 49; test: as above; format: cell-based; settings: Enterococcus faecalis; S. faecalis 49; 10^6 cells/ml; clinical isolate; read-out: MIC
[31] = system: S. faecalis 402; test: as above; format: cell-based; settings: Enterococcus faecalis; S. faecalis 402; 10^6 cells/ml; clinical isolate; read-out: MIC
[32] = Bacillus subtilis PCI 219, 10^6 cells/ml, standard strain, read-out: MIC
[33] = Staphylococcus aureus, S. aureus Smith, 10^6 cells/ml, standard strain, read-out: MIC

Row | Structure (SMILES) | MIC [2] [µg/mL] | MIC [3, 33] [µg/mL] | MIC [4] [µg/mL] | MIC [5] [µg/mL] | MIC [6] [µg/mL] | MIC [7] [µg/mL] | MIC [8] [µg/mL] | MIC [9] [µg/mL] | MIC [10] [µg/mL] | MIC [11] [µg/mL] | MIC [12] [µg/mL] | MIC [13] [µg/mL] | MIC [14] [µg/mL] | MIC [15] [µg/mL] | MIC [16] [µg/mL] | MIC [17] [µg/mL] | MIC [18] [µg/mL] | MIC [19] [µg/mL] | MIC [20] [µg/mL] | MIC [21] [µg/mL] | also measured
1 | CC(C)NCC1CCN(c2c(F)cc3c(=O)c(C(=O)O)cn(C4CC4)c3c2F)C1.Cl (stereo not shown) [Example 11, 1-Cyclopropyl-6,8-difluoro-1,4-dihydro-7-(3-isopropylaminomethyl-1-pyrrolidinyl)-4-oxo-3-quinolinecarboxylic acid hydrochloride] | 0.05 | 0.05 | 0.05 | 0.2 | 0.39 | 0.39 | 0.05 | 0.05 | 0.39 | 0.1 | 0.2 | 0.2 | 0.2 | 3.13 | 3.13 | 0.1 | 0.78 | 3.13 | 0.2 | 0.2 | MIC [1, 32]: 0.025 µg/mL; MIC [22]: 0.39 µg/mL; MIC [23]: 0.2 µg/mL; MIC [24]: 0.2 µg/mL; MIC [25]: 0.2 µg/mL; MIC [26]: 0.39 µg/mL; MIC [27]: 0.2 µg/mL; MIC [28]: 0.2 µg/mL; MIC [29]: 0.2 µg/mL; MIC [30]: 0.2 µg/mL; MIC [31]: 0.39 µg/mL
2 | CN(C)CC1CCN(c2c(F)cc3c(=O)c(C(=O)O)cn(C4CC4)c3c2Cl)C1 (stereo not drawn) [Example 20, 8-Chloro-1-cyclopropyl-6-fluoro-1,4-dihydro-7-(3-dimethylaminomethyl-l-pyrrolidinyl)-4-oxo-3-quinolinecarboxylic acid] | 0.025 (≈ 0.0613 µM) | 0.025 (≈ 0.0613 µM) | 0.05 (≈ 0.123 µM) | 0.05 (≈ 0.123 µM) | 0.05 (≈ 0.123 µM) | 0.1 (≈ 0.245 µM) | 0.025 (≈ 0.0613 µM) | 0.05 (≈ 0.123 µM) | 0.1 (≈ 0.245 µM) | 0.05 (≈ 0.123 µM) | 0.1 (≈ 0.245 µM) | 0.1 (≈ 0.245 µM) | 0.1 (≈ 0.245 µM) | 1.56 (≈ 3.82 µM) | 1.56 (≈ 3.82 µM) | 0.05 (≈ 0.123 µM) | ≤ 0.05 | 0.78 (≈ 1.91 µM) | 0.1 (≈ 0.245 µM) | 0.05 (≈ 0.123 µM) | MIC [1, 32]: 0.025 µg/mL (≈ 0.0613 µM); MIC [22]: 0.1 µg/mL (≈ 0.245 µM); MIC [23]: 0.05 µg/mL (≈ 0.123 µM); MIC [24]: 0.05 µg/mL (≈ 0.123 µM); MIC [25]: 0.1 µg/mL (≈ 0.245 µM); MIC [26]: 0.2 µg/mL (≈ 0.49 µM); MIC [27]: 0.1 µg/mL (≈ 0.245 µM); MIC [28]: 0.1 µg/mL (≈ 0.245 µM); MIC [29]: 0.1 µg/mL (≈ 0.245 µM); MIC [30]: 0.1 µg/mL (≈ 0.245 µM); MIC [31]: 0.1 µg/mL (≈ 0.245 µM)
3 | CCNCC1CCN(c2c(F)cc3c(=O)c(C(=O)O)cn(C4CC4)c3c2F)C1 (stereo not drawn) [Example 2, l-Cyclopropyl-7-(3-ethylaminomethyl-l-pyrrolidinyl)-6,8-difluoro-l,4-dihydro-4-oxo-3-quinolinecarboxylic acid hydrochloride] | 0.025 | 0.025 | 0.05 | 0.1 | 0.1 | 0.2 | 0.025 | 0.025 | 0.1 | 0.05 | 0.1 | 0.05 | 0.1 | 1.56 | 3.13 | 0.05 | 0.78 | 1.56 | 0.39 | 0.05 | MIC [1, 32]: 0.0125 µg/mL; MIC ([3]; MIC column of Table 3-1, beside ED50 against S. aureus Smith): 0.025 µg/mL; MIC [22]: 0.1 µg/mL; MIC [23]: 0.05 µg/mL; MIC [24]: 0.05 µg/mL; MIC [25]: 0.1 µg/mL; MIC [26]: 0.2 µg/mL; MIC [27]: 0.1 µg/mL; MIC [28]: 0.1 µg/mL; MIC [29]: 0.1 µg/mL; MIC [30]: 0.2 µg/mL; MIC [31]: 0.2 µg/mL
4 | CNCC1CCN(c2c(F)cc3c(=O)c(C(=O)O)cn(C4CC4)c3c2Cl)C1 (stereo not drawn) [Example 12, 8-Chloro-l-cyclopropyl-6-fluoro-1,4-dihydro-7-(3-methylaminomethyl-1-pyrrolidinyl)-4-oxo-3-quinolinecarboxylic acid hydrochloride] | 0.0125 | 0.025 | 0.025 | 0.05 | 0.05 | 0.05 | 0.025 | 0.025 | 0.05 | 0.05 | 0.05 | 0.05 | 0.05 | 0.78 | 1.56 | 0.05 | 0.1 | 0.39 | 0.1 | 0.05 | MIC [1, 32]: 0.0125 µg/mL; MIC [22]: 0.05 µg/mL; MIC [23]: 0.05 µg/mL; MIC [24]: 0.05 µg/mL; MIC [25]: 0.05 µg/mL; MIC [26]: 0.1 µg/mL; MIC [27]: 0.05 µg/mL; MIC [28]: 0.05 µg/mL; MIC [29]: 0.05 µg/mL; MIC [30]: 0.05 µg/mL; MIC [31]: 0.1 µg/mL
5 | CNCC1CCN(c2c(F)cc3c(=O)c(C(=O)O)cn(C4CC4)c3c2F)C1 (stereo not drawn) [Example 8, 1-Cyclopropyl-6,8-difluoro-1,4-dihydro-7-(3-methylaminomethyl-l-pyrrolidinyl)-4-oxo-3-quinolinecarboxylic acid hydrochloride] | 0.025 | 0.025 | 0.025 | 0.05 | 0.05 | 0.1 | 0.025 | 0.025 | 0.1 | 0.025 | 0.1 | 0.05 | 0.1 | 1.56 | 1.56 | 0.1 | 0.39 | 0.78 | 0.39 | 0.05 | MIC ([1]; Bacillus subtilis): 0.0125 µg/mL; MIC [23]: 0.05 µg/mL; MIC [24]: 0.05 µg/mL; MIC [25]: 0.05 µg/mL; MIC [26]: 0.1 µg/mL; MIC [27]: 0.2 µg/mL; MIC [29]: 0.1 µg/mL; MIC [30]: 0.1 µg/mL; MIC [31]: 0.2 µg/mL
